# Data as given in PubChem BioAssay AID179 (DTP/NCI, 2004).
# Calls of active or inactive are those of the source.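 Rule for the calls: active = compounds giving half or more protection of infected cells from virus-caused growth loss, again on retest; inactive = the rest.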 Where a SMILES comes first, the peptide text is derived from it. The star is where a group is joined. Boc = CC(C)(C)OC(=O)*; OBn = c1ccc(CO*)cc1
# Test system: CEM cells HIV-1 protection, formazan growth assay
# Test: NCI AIDS Antiviral Assay
# Details: for IC50: measured here: growth of uninfected CEM cells
# Method in brief: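 Soluble formazan readout of cell growth; CEM cells ± HIV-1; 5 drug concs. ≥50% protection → retest; ≥50% again = moderately active; reproducible 100% = confirmed active.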
Compound,EC50 [µM],IC50 [µM],outcome
CCCC1=NC(C(F)(F)F)(C(F)(F)F)N=C(N2CCOCC2)O1,> 200,> 200,–
O=c1cc(O)c2c(O)cc(O)cc2o1,> 200,> 200,–
NC(N)=NS(=O)(=O)c1ccc(NC(=O)c2cccc3c(NNc4ccc(C(=O)O)cc4)c4ccccc4nc23)cc1,> 200,33.9,–
COC(=O)C(Cc1ccccc1)NP(=O)(O)OCC1OC(n2cc(Br)c(=O)[nH]c2=O)CC1O (stereo not drawn),> 200,> 200,–
COc1ccc(C2C3COc4ccccc4C3=NN2c2ccccc2)cc1 (stereo not drawn),> 200,> 200,–
Cn1c(=O)nc2n(-c3ccc(Cl)cc3Cl)c3ccccc3nc-2c1=O,–,–,inactive
O=C(O)C(=C/C=C/c1ccccc1)C(=O)O,–,–,inactive
CCOC(=O)C(/C=N/C(=S)Nc1ccc(S(=O)(=O)Nc2ccccn2)cc1)=C(/O)c1ccccc1,> 200,135,–
CC1NOC(=O)C1N=Nc1cccc(Cl)c1 (stereo not drawn),5.25,30.2,–
NCCN.[O-][Cl+3]([O-])([O-])[O-].[Pd+2].c1ccc(-c2ccccn2)nc1,> 200,30.2,–
COc1ccc(Nc2nc(NNC(=O)Cc3ccccc3)nc(NNC(=O)c3ccncc3)n2)cc1,> 178,174,–
CC(C)[C@](O)(C(=O)OCC1=CCN2CC[C@@H](O)[C@@H]12)[C@H](C)O,> 417,> 417,–
COc1ccc(-c2cc(-c3cc(C)cc(Br)c3O)no2)cc1,> 200,> 200,–
O=C(NNC(=S)S)c1ccncc1,> 200,95.5,–
CCOc1ncn(-c2ccc(NC(=S)NC34CC5CC(CC(C5)C3)C4)cc2)n1,12,67.6,–
Cc1ccc(-n2c3nc(=O)n(C)c(=O)c-3cc3c(OCc4ccccc4)cccc32)cc1,> 19.5,> 19.5,–
NCCCN(CCCCN(CCCN)Cc1ccc2ccccc2c1)Cc1ccc2ccccc2c1,> 200,1.07,–
C1=CC2C=CC(C=C1)P2c1ccccc1 (stereo not drawn),–,–,inactive
CC(C)(C)[Si](C)(C)OC[C@H]1O[C@@H](n2ccc(=O)[nH]c2=O)C[C@]12CCN(O)CO2,> 200,105,–
C=C1[C@H]2O[C@H]2[C@@H](OC(C)=O)[C@@]2(C)[C@@H](OC(C)=O)C[C@@H](OC(=O)CCC)[C@@](C)(O)[C@@H]2[C@@H](OC(C)=O)[C@]2(O)[C@@H](C)C(=O)O[C@H]2[C@H]1Cl,> 200,174,–
Cc1ccc(NC(=O)CC/C(CC(=O)C(C)(C)C)=N/NC(=O)c2cc3ccccc3cc2O)cc1C,> 20.4,> 20.4,–

Compound,EC50 [µM],IC50 [µM],outcome
C=C(c1nc2ccc(Cl)cc2[nH]c1=O)C(O)c1ccc(C(O)C(=O)c2nc3ccc(Cl)cc3[nH]c2=O)cc1 (stereo not drawn),> 162,12,–
O=S(=O)(O)SCCCNCCCCCCCCNCCCSS(=O)(=O)O,> 200,10,–
N#Cc1ccc(C(O)C(F)(F)c2nc3ccccc3o2)cc1 (stereo not drawn),> 200,> 200,–
O=C(CC1Sc2ccccc2NC1=O)Nc1cc(Cl)ccc1Cl (stereo not drawn),> 70.8,> 70.8,–
[N-]=[N+]=NC1CC(n2cc(Cc3ccccc3)c(=O)[nH]c2=O)OC1COC(=O)CCC(=O)O (stereo not drawn),> 562,> 562,–
CCCc1cc(=O)oc2c3c(c4c(c12)OC(C)(C)C=C4)O[C@H](C)[C@@H](C)[C@H]3O,> 58.9,17.8,–
CC(C)(C)S(=O)OC12CC3CC(CC(C3)C1)C2 (stereo not drawn),> 708,151,–
C=C1CN(S(=O)(=O)c2ccc(C)cc2)CCCN(Cc2ccncc2)CCCN(S(=O)(=O)c2ccc(C)cc2)C1,> 200,4.37,–
CCCCNCC(=O)O[C@]1(CC)C(=O)OCc2c1cc1n(c2=O)Cc2cc3ccccc3nc2-1,> 10,0.0776,–
O=[N+]([O-])c1ccc(C=NC23CC4CC(CC(C4)C2)C3)cc1,–,–,inactive
O=C(NNC(=S)Nc1ccccc1)C12CC3CC(CC(C3)C1)C2,> 200,34.7,–
Nc1ccc(C(=O)NN2C(=O)C(Cl)C2c2ccccc2)cc1 (stereo not drawn),> 200,47.9,–
NC(=O)C(=CN1C(=O)/C(=C\c2cccc(O)c2)SC1=S)C(N)=O,> 200,107,–
O=c1c2ccccc2c2nccn2c2ccccc12,182,> 200,–
O=C1CCCCCCCCCCC1CN1CCCC1 (stereo not drawn),–,–,inactive
NS(=O)(=O)c1ccc(NCc2cccc3c(=O)c4ccc(Cl)cc4oc23)cc1,> 100,4.07,–
Cc1nc2ccccc2c(=O)n1Nc1ccc(C(=O)O)cc1,–,–,inactive
CCCCCCCCCCCC(=O)N(C)CCS(=O)(=O)O,–,–,inactive
CCOC(=O)/C(O)=C/c1nc2ccccc2nc1C,> 46.8,> 46.8,–
COc1cccc(N2C(=O)CSC2c2c[nH]c3ccccc23)c1 (stereo not drawn),> 22.4,> 22.4,–
CCCSP(SCCC)SCCC,–,–,inactive

Compound,EC50 [µM],IC50 [µM],outcome
COc1ccc2c(c1)OC(C)(C)C1c3c(cc(OC)c(O)c3C)OC21 (stereo not drawn),> 200,9.33,–
O=S(=O)(O)c1ccc(N/N=C/c2ccccc2)cc1,> 832,794,–
COC(=O)[C@@H]1C[C@@H](OS(=O)(=O)c2ccc(C)cc2)CN1C(=O)OCc1ccccc1,–,–,inactive
O=C(Cn1c(-c2ccccc2)cc2ccccc21)N1CCCC1,> 200,126,–
O=C1CN2C(Cl)(Cl)C2(c2ccccc2)c2cc(Cl)ccc2N1CC(F)(F)F (stereo not drawn),> 200,29.5,–
CC(=O)Oc1ccc(C[C@H]2COC(=O)[C@@H]2Cc2ccc(OC(C)=O)c(OC(C)=O)c2)cc1OC(C)=O,> 200,17.4,–
CCOC(=O)C12CCSC1C1(C#N)C(C#N)=CC2(N=P(c2ccccc2)(c2ccccc2)c2ccccc2)n2c(=O)n(-c3ccccc3)c(=O)n21 (stereo not drawn),> 26.3,> 26.3,–
O=[N+]([O-])c1ccc(CSc2nncc3[nH]cnc23)cc1,31.6,63.1,–
O=c1c2c3c(sc2nc2n1NC=NN2)CCCC3,> 20,8.51,–
O=S(=O)(O)SCCNCCCCC1CCCCC1,> 200,10.2,–
COc1cc2c(cc1OC)-c1cc3ccccc3c[n+]1CC2,> 200,> 200,–
N/C(=N\NS(=O)(=O)c1ccccc1)Oc1ccc(Cl)cc1,> 398,339,–
Brc1ccc(-c2ccc(-c3ccc(Br)s3)s2)s1,> 200,> 200,–
COc1ccc(-c2c(N)n(-c3cccc(C(=O)O)c3)c(=O)c3cc([N+](=O)[O-])ccc23)cc1,> 200,129,–
CC(=O)OC12c3ccccc3C(c3ccccc31)C1C(=O)N(N=C(C)C)C(=O)C12 (stereo not drawn),> 200,> 200,–
C/C(O)=C(\C=N\C(=S)N=Nc1c(O)[nH]c2ccccc12)C(=O)Nc1ccccc1C,> 200,> 200,–
CCN1C[C@]2(C)CCC(OC)C34[C@@H]5C[C@@H]6C(OC)[C@@H]5[C@@]5(C[C@@H]6OC)OCO[C@]5([C@H]13)[C@@H](OC(C)=O)[C@@H]42 (stereo partly drawn),–,–,inactive
O=C1NC(=S)NC1C(Cc1ccccc1)c1ccccc1 (stereo not drawn),> 200,85.1,–
COc1ccc2c(c1)C1Oc3ccccc3CC1(O)CO2 (stereo not drawn),> 200,132,–
CCCCCCC(O)CC[C@H]1CCC[C@@H](C)N1 (stereo partly drawn),–,–,inactive
CCCCCCCCCCCCCCCC[N+](C)(C)CCN(Cc1ccc(OC)cc1)c1ncccn1,> 200,0.977,–

Compound,EC50 [µM],IC50 [µM],outcome
COC(=O)/C=C/c1ccc2c(c1)CC1(C2)Cc2cc3c(cc2C1=O)CCC3 (stereo not drawn),> 100,> 100,–
CC(=O)OCC(OC(C)=O)C(OC(C)=O)C(/C=N\Nc1nc2ccccc2c(=O)[nH]1)OC(C)=O (stereo not drawn),> 200,> 200,–
COC(=O)C(CCCCCCCC(C(=O)OC)c1nc2n(c1O)C(=N)N=N2)c1nc2n(c1O)C(=N)N=N2 (stereo not drawn),> 7.41,> 7.41,–
CC1(C)[C@H](C(=O)O)N2C(=O)[C@@H](NS(=O)(=O)c3ccc([N+](=O)[O-])cc3)[C@H]2S1(=O)=O,> 200,195,–
Nc1nc(N)c(-c2ccccc2)c(C(=O)Nc2ccc(Cl)c(Cl)c2)n1,> 479,–,–
COC(=O)C(Cc1c(C2Nc3ccccc3C2CC(NC(=O)CNC(C)=O)C(=O)OC)[nH]c2ccccc12)NC(=O)CNC(C)=O (stereo not drawn),> 200,> 200,–
O=C(/C=C/c1c(O)ccc2ccccc12)c1ccc([N+](=O)[O-])cc1,33.9,58.9,–
C/C(O)=C(\C=N\C(=S)Nc1cccc(C(F)(F)F)c1)C(=O)Nc1ccccc1C,> 100,75.9,–
O=S(=O)([O-])[O-].[Fe+2].c1ccc(/C(=N\Nc2ccccn2)c2ccccn2)cc1,–,–,inactive
CCCCCCCCCCCCC(SCCNC(=O)CCNC(=O)C(O)C(C)(C)COP(=O)(O)OP(=O)(O)OCC1OC(n2cnc3c(N)ncnc32)C(O)C1OP(=O)(O)O)C(=O)NCC(N)=O (stereo not drawn),–,–,inactive
CN(C)CCNc1ccc2c(=O)n(CCN(C)C)c(=O)n3c4ccccc4c(=O)c1c23,> 0.1,0.00933,–
CC(=O)OCC1OC(Sc2nc(-c3ccccc3)c(C#N)c(=O)n2C2OC(COC(C)=O)C(OC(C)=O)C(OC(C)=O)C2OC(C)=O)C(OC(C)=O)C(OC(C)=O)C1OC(C)=O (stereo not drawn),> 151,19.5,–
O=c1[nH]n2c(=O)cc[nH]c2c1-c1nnns1,> 30.9,> 30.9,–
N#C/C(=C/NC(=S)Nc1ccc(S(N)(=O)=O)cc1)C(N)=O,> 200,178,–
COC(=O)C=C(c1cc(Cl)c(OC)c(C(=O)OC)c1)c1cc(Cl)c(OC)c(C(=O)OC)c1,> 200,17.8,–
O=S(=O)(N=S(c1ccccc1)c1ccccc1)c1ccccc1,> 145,> 145,–
CC(C)CC(NC(=O)C(Cc1ccccc1)NC(=O)C(Cc1ccccc1)NC(=O)OC(C)(C)C)C(=O)OCc1ccccc1 (stereo not drawn) (Boc-Phe-Phe-Leu-OBn; configuration not given here),> 200,> 200,–
COc1ccc2c(c1)N(C)CCCC2=O,> 200,151,–
